Patent US12365655B2, “Compounds” (CTXT PTY LTD, priority 2018, dated 2025)

Legend:
TIP60-KAT5 = TIP60-KAT5 (Homo sapiens, UniProt Q92993); assay: Acetyltransferase biochemical assay (AlphaScreen), KAT5
HBO-KAT7 = HBO-KAT7 (Homo sapiens, UniProt O95251); assay: Acetyltransferase biochemical assay (AlphaScreen), KAT7
MOZ-KAT6A = MOZ-KAT6A (Homo sapiens, UniProt Q92794, A567V); assay: Acetyltransferase biochemical assay (AlphaScreen), KAT6A
Chain of MOZ-KAT6A (Q92794 with tags, fused parts or gaps A567V): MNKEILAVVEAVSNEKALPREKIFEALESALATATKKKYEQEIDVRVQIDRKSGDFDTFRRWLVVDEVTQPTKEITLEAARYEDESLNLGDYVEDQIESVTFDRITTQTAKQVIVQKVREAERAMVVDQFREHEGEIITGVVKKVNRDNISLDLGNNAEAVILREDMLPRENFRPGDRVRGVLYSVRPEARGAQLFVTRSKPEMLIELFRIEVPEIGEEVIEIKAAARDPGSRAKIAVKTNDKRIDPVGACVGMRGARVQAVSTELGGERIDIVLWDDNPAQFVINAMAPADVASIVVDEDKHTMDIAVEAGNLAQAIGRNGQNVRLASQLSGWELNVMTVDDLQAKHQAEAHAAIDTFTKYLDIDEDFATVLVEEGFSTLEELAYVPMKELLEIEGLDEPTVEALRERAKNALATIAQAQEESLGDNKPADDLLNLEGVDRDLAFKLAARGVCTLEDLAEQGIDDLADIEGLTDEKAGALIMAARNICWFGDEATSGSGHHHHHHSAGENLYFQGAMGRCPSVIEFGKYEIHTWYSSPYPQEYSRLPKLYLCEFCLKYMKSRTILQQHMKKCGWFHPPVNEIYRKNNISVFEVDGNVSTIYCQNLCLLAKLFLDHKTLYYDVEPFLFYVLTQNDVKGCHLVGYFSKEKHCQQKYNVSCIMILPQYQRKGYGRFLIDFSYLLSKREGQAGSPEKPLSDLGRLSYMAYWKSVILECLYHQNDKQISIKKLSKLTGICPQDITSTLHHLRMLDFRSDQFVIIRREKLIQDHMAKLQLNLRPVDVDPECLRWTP

Chain of HBO-KAT7 (O95251 with tags, fused parts or gaps): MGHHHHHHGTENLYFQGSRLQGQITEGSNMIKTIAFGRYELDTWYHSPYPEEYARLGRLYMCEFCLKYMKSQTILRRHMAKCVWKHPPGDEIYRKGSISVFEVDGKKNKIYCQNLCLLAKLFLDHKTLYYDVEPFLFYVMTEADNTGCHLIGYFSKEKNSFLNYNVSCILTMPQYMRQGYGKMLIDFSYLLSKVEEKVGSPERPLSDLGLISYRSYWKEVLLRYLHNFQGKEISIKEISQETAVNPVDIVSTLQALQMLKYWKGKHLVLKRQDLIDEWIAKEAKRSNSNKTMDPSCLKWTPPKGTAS
Chain of TIP60-KAT5 (Q92993 with tags, fused parts or gaps isoform Q92993-2): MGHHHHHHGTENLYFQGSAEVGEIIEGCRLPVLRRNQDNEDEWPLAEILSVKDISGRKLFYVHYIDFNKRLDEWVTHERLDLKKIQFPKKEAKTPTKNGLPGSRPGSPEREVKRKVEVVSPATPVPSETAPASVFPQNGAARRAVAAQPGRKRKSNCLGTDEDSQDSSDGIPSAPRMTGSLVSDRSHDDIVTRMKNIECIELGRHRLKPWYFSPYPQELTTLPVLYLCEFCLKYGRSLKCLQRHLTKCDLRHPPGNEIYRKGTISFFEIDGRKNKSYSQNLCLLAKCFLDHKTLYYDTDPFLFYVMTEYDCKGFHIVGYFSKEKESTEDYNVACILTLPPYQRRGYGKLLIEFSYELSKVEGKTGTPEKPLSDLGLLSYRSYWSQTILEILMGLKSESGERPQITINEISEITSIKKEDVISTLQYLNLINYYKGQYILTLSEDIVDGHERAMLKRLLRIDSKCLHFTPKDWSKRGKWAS

Row | Structure (SMILES) | IC50 (TIP60-KAT5) | IC50 (HBO-KAT7) | IC50 (MOZ-KAT6A)
1 | COc1cc(-c2ccccc2)ccc1S(=O)(=O)Nc1noc2ccccc12 [Example 183, N-(Benzo[d]isoxazol-3-yl)-3-methoxy-[1,1-biphenyl]-4-sulfonamide] | 33.2 µM | 4.48 µM | 5.6 µM
2 | COc1cccc(OC)c1S(=O)(=O)Nc1noc2c(Br)cc(C)cc12 [Example 239] | 17.4 µM | 3 µM | 2.13 µM
3 | O=S(=O)(Nc1noc2cccc(Cl)c12)c1ccc2c(c1)OCCCO2 [Example 14, N-(4-chlorobenzo [d]isoxazol-3-yl)-3,4-dihydro-2H-benzo[b][1,4]dioxepine-7-sulfonamide] | > 125 µM | 15.2 µM | 45 µM
4 | COc1cccc(OC)c1S(=O)(=O)Nc1noc2cc(COCC(F)(F)F)cc(OC)c12 [Example 240, 2,6-Dimethoxy-N-(4-methoxy-6-((2,2,2-trifluoroethoxy)methyl)benzo[d]isoxazol-3-yl)benzenesulfonamide] | 122 µM | 10.2 µM | 1.83 µM
5 | Cc1cnc2c(S(=O)(=O)Nc3noc4cccc(Cl)c34)cccc2c1 [Example 118, N-(4-Chlorobenzo[d]isoxazol-3-yl)-3-methylquinoline-8-sulfonamide] | 37.1 µM | 0.852 µM | 10 µM
6 | CCc1ccc(OC)c(S(=O)(=O)Nc2noc3ccc(Cl)cc23)c1 [Example 150] | 50 µM | 8.04 µM | 4.97 µM
7 | COc1ccc(-n2cccn2)cc1S(=O)(=O)Nc1noc2ccccc12 [Example 54, N-(benzo[d]isoxazol-3-yl)-2-methoxy-5-(1H-pyrazol-1-yl)benzene sulfonamide] | > 125 µM | > 125 µM | 63 µM
8 | CCc1ccc(OC)c(S(=O)(=O)Nc2noc3ccc(C(N)=O)cc23)c1 [Example 232, 3-((5-Ethyl-2-methoxyphenyl)sulfonamido)benzo[d]isoxazole-5-carboxamide] | > 125 µM | > 125 µM | 46.5 µM
9 | COc1cccc2onc(NS(=O)(=O)c3cccc4cccnc34)c12 [Example 83, N-(4-methoxybenzo[d]isoxazol-3-yl)quinoline-8-sulfonamide] | 17.9 µM | 3.79 µM | 13.6 µM
10 | COc1cccc(OC)c1S(=O)(=O)Nc1noc2cc(C)cc(OC)c12 [Example 244, 2,6-Dimethoxy-N-(4-methoxy-6-methylbenzo[d]isoxazol-3-yl)benzenesulfonamide] | 30.2 µM | 1.11 µM | 2.13 µM
11 | CCc1ccc(OC)c(S(=O)(=O)Nc2noc3ccc(C4CC4)c(OC)c23)c1 [Example 208] | 28.5 µM | 4.65 µM | 1.63 µM
12 | CCc1ccc(OC)c(S(=O)(=O)Nc2noc3cccc(Br)c23)c1 [Example 129] | 18.5 µM | 1.32 µM | 0.772 µM
13 | O=S(=O)(Nc1noc2cccc(Cl)c12)c1ccccc1OC(F)F [Example 38, N-(4-chlorobenzo [d]isoxazol-3-yl)-2-(difluoromethoxy) benzenesulfonamide] | 80.1 µM | 6.7 µM | 27.5 µM
14 | O=S(=O)(Nc1noc2cccc(Cl)c12)c1cccc2ccccc12 [Example 124, N-(4-Chlorobenzo[d]isoxazol-3-yl)naphthalene-1-sulfonamide] | 27.9 µM | 13 µM | 11 µM
15 | CCc1ccc(OC)c(S(=O)(=O)Nc2noc3ccc(C)c(Cl)c23)c1 [Example 153] | 4.05 µM | 0.507 µM | 0.437 µM
16 | CCc1ccc(OC)c(S(=O)(=O)Nc2noc3ccc(C(=O)NC)cc23)c1 [Example 230, 3-((5-Ethyl-2-methoxyphenyl)sulfonamido)-N-methylbenzo[d]isoxazole-5-carboxamide] | > 125 µM | 109 µM | 48.1 µM
17 | CCc1ccc(OC)c(S(=O)(=O)Nc2noc3c(OCC4CC4)cccc23)c1 [Example 133] | 45.7 µM | 5.34 µM | 4.45 µM
